Test results reported in ChEMBL document CHEMBL1201862, “PubChem BioAssay data set” (2004).
The source made the active and inactive calls.

Tests used:
[1] = HIV-1 Env-mediated cell fusion inhibitors, dose response, CCR5-tropic Env (AID 2279); type: functional
[2] = molecular target: Heat shock protein HSP 90-alpha (Homo sapiens, UniProt P07900); test: Luminescence-based dose response biochemical high throughput screening assay for inhibitors of the Heat Shock Protein 90 (HSP90). [Related pubchem assays: 1831 (Summary AID.), 1846 (Confirmation screen.), 1789 (Primary screen.)]
[3] = molecular target: T1, Long-chain-fatty-acid--AMP ligase FadD28 (Mycobacterium tuberculosis, UniProt P9WQ59); test: Fluorescence polarization aasay to screen for inhibitors that compete for the binding of FadD28 to a bisubstrate Measured in Biochemical System Using Plate Reader - 2147-01_Inhibitor_Dose_CherryPick_Activity.; type: functional, Mycobacterium tuberculosis H37Rv
T1 sequence (P9WQ59 whole entry): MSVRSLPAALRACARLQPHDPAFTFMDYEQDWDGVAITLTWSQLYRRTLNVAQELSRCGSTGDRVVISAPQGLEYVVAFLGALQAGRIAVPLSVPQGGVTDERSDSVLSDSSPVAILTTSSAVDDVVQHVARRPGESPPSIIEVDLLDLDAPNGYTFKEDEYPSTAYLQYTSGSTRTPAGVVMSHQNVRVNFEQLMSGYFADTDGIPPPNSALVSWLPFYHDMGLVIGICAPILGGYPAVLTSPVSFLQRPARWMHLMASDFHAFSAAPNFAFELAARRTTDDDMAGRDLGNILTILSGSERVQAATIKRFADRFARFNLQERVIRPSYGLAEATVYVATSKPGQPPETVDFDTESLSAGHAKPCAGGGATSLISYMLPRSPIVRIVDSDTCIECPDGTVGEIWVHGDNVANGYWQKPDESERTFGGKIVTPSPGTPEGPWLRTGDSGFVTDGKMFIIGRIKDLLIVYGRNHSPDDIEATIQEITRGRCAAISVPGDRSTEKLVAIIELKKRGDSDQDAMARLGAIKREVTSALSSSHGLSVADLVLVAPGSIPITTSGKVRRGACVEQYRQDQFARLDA

[4] = molecular target: T2, Histone-lysine N-methyltransferase NSD2 (Homo sapiens, UniProt O96028); type: biochemical
T2 sequence (O96028 whole entry): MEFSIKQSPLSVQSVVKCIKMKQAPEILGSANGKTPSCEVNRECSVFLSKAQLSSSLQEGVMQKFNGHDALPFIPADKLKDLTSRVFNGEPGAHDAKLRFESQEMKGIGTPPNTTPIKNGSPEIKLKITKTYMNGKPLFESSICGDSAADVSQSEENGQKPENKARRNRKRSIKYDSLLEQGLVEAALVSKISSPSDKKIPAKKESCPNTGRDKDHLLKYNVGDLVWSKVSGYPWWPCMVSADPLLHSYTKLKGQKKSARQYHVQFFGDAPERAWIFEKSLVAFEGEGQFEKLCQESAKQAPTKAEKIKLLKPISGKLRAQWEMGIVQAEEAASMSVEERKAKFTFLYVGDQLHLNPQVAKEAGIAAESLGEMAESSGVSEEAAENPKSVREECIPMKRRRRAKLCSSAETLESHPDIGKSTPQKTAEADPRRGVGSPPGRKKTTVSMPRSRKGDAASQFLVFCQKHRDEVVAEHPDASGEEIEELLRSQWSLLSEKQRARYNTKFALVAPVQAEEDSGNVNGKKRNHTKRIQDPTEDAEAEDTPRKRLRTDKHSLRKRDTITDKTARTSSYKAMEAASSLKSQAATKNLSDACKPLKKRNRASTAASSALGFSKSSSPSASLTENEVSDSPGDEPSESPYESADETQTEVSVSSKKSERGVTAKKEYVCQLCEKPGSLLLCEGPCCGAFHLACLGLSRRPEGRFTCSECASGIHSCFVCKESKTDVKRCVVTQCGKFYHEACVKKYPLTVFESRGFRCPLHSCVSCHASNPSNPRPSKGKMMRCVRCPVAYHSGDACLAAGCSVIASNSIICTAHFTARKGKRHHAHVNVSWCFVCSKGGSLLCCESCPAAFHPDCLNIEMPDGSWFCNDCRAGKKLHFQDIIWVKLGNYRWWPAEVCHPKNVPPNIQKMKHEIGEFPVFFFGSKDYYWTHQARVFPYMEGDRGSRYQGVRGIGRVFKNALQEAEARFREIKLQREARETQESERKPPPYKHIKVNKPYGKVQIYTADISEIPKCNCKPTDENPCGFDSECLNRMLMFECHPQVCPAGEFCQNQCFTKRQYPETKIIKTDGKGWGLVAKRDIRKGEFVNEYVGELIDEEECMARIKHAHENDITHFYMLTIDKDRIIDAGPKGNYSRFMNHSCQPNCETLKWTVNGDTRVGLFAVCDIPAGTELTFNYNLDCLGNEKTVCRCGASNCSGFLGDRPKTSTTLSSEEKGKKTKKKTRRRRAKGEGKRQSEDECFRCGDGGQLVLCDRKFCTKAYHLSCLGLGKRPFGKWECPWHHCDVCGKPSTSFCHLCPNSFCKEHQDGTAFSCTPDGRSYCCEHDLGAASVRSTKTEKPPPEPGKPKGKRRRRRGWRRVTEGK

[5] = molecular target: E3 ubiquitin-protein ligase UHRF1 (Homo sapiens, UniProt Q96T88); test: Counterscreen for inhibitors of 5-meCpG-binding domain protein 2 (MBD2): TRFRET-based biochemical high throughput dose response assay to identify inhibitors of binding of ubiquitin-like with PHD and ring finger domains 1 (UHRF1) to methylated oligonucleotide.
Chain of E3 ubiquitin-protein ligase UHRF1 (Q96T88 whole entry, the tested form may be a part): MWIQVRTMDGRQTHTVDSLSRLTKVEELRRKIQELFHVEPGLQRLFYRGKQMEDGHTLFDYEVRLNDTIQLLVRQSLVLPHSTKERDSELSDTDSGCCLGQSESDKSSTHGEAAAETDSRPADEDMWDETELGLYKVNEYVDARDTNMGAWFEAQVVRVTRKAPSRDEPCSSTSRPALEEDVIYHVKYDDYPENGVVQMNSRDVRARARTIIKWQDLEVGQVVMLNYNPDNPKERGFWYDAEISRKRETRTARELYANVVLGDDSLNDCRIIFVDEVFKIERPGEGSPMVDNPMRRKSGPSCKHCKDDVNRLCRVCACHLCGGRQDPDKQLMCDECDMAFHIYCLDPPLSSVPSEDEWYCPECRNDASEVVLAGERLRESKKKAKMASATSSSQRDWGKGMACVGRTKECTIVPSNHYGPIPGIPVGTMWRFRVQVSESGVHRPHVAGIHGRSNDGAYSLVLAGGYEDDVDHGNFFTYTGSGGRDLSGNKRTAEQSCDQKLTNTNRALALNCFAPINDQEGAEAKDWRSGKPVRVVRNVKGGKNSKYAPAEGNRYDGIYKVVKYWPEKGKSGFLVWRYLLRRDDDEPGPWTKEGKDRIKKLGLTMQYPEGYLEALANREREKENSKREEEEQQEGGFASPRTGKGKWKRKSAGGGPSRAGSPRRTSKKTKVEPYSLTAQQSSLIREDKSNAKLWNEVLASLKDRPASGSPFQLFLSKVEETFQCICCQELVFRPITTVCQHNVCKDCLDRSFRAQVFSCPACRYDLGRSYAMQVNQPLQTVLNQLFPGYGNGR

[6] = half-maximal inhibitory concentration for glucagon-like peptide-1 release, STC-1 cell line, dose-response (AID 1117345); type: functional, cell-based
[7] = Glucagon-like peptide 1 release potency, NCI-H716 cell line, dose-response, half-maximal inhibitory concentration (AID 1117344); type: functional, cell-based
NADPH oxidase 1 = NADPH oxidase 1 (Homo sapiens, UniProt Q9Y5S8); test: Late-stage luminescence-based cell-based dose response assay to identify inhibitors of NADPH oxidase 1 (NOX1): Synthesized analogs.; type: functional
Chain of NADPH oxidase 1 (Q9Y5S8 whole entry): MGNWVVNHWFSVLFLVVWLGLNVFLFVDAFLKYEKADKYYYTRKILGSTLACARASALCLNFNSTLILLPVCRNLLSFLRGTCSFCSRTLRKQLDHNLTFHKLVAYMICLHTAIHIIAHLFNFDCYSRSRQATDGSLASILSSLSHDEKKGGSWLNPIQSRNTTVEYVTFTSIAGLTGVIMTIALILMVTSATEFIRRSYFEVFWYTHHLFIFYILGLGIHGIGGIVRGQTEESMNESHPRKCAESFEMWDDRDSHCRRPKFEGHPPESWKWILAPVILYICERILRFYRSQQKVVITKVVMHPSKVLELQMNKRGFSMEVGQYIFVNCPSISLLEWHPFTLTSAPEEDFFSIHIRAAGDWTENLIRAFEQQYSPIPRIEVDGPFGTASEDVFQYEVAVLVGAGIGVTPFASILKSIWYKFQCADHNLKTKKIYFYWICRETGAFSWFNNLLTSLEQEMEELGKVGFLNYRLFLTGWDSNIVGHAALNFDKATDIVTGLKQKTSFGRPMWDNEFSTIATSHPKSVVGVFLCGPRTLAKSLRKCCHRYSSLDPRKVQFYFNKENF

[8] = HeLa 2N DNA content increase, dose response, cell-based, IC50 (AID 1117349); type: functional
[9] = Concentration-dependent survival of SW480 colon cancer line, luminescence detection with CellTiter-Glo, half-maximal inhibitory concentration (AID 1117338); type: functional
[10] = Dose-response inhibition of insulin secretion in a rat insulinoma line at 5 mM glucose (AID 1117331); type: functional, cell-based; details: INS-1E
[11] = RKO cell viability reduction, dose response, CellTiter-Glo luminescence (AID 1117322); type: functional
[12] = cytotoxicity toward HCT116 cells – cell-based, CellTiter-Glo luminescence, IC50, dose response (AID 1117332); type: functional; details: HCT-116
[13] = SNU-C1 cell viability reduction, dose response, CellTiter-Glo luminescence (AID 1117323); type: functional, cell-based
cells = type: functional, cell-based; details: INS-1E
[14] = cytotoxicity toward Colo320 cells – cell-based, CellTiter-Glo luminescence, IC50, dose response (AID 1117334); type: functional; details: COLO 320
[15] = HeLa 4N DNA content increase, dose response, cell-based, IC50 (AID 1117351); type: functional
[16] = CellTiter-Glo luminescent dose response of DLD-1 viability loss (AID 1117352); type: functional

For COc1ccc(C(=O)Oc2ccc(/C=N/Nc3ccc(Cl)c(C(=O)O)c3)cc2OC)cc1, the IC50 [1] was 7.02 µM (active), the IC50 [2] was 1.5 µM (active) and the AC50 [3] was 99.3 µM (active). For the same compound, the AC50 [4] was > 20 µM (inactive).

With COc1ccc2c(=O)c3c(=O)n(-c4ccccc4)c(-c4ccc(C)cc4)nc3oc2c1 the IC50 [5] was > 0.541 µM (active).

With O=C(O)c1cc(/N=N/c2ccc(O)c(C(=O)O)c2)ccc1O [OLSALAZINE] the IC50 [6] was 9.54 µM (inactive) and the IC50 [7] was > 40 µM (inactive).

In the case of CC(=NNc1cccc(C(=O)O)c1)c1ccc2c(c1)Nc1ccccc1S2, the IC50 (NADPH oxidase 1) is reported as 0.305 µM (active).

With CN(C)CCOC(c1ccccc1)c1ccc(Br)cc1 (stereo not drawn) [BROMODIPHENHYDRAMINE] the IC50 [8] was > 10 µM (inactive), the IC50 [9] was > 20 µM (inactive) and the IC50 [10] was 2.77 µM (active). The IC50 [11] was > 20 µM (inactive), the IC50 [12] was > 20 µM (inactive) and the IC50 [13] was 3.1 µM (active). The IC50 (cells) was > 33.3 µM (inactive), the IC50 [14] was > 20 µM (inactive) and the IC50 [15] was > 10 µM (inactive). The IC50 [16] was > 20 µM (inactive).
